“Also recorded” adds a separate entry of the source.
Legend:
[1] = tested on: HNSCC Cal27 subcutaneous xenografts; experiment: Flank-xenograft solid tumor-bearing NSG mouse model; format: in vivo, NSG mice; details: for Median survival time: Subcutaneous xenograft model, fusion toxin or DT390 50 μg/kg IP, erlotinib 20 mg/kg gavage, once daily for 10 days from day 4
Text: FIGS. 6A-6D presents the data from in vivo efficacy analysis of the human EGF fusion toxins against subcutaneous xenografts in NSG mice from two animal studies. FIG. 6A depicts the survival curve for NSG mice injected with Cal27 cells. […] FIGS. 6B-D depict tumor volume and weight data from the second study performed with a second cohort of NSG mice. […] Mice were euthanized on day 14 after tumor cell injection, when the first mouse in the DT390 group reached the end point. FIG. 6B: Tumor volumes were measured periodically, and the growth kinetics of the four groups were plotted. FIG. 6B depicts the tumor growth kinetics for a period of 14 days. FIG. 6C presents a bar graph representing the tumor weights at day 14. FIG. 6D depicts images of harvested tumors on day 14. Scale bar: 1 cm. FIGS. 6A-6C: *P<0.05; **P<0.01; ***P<0.001; ****P<0.0001; ns: not significant. The P-values for the survival curves in FIG. 6A were calculated using the Mantel-Cox log-rank test and that for the comparisons in FIGS. 6B and C were calculated using the two-tailed Student t-test (GraphPad Prism 9.0.0).
(§1) HNSCC tumor cells were injected via the following routes: 1) Flank-xenograft solid tumor model: eight million human HNSCC Cal27 tumor cells were subcutaneously injected into the right flank at day 0. The tumor-bearing mice were randomly divided into the four experimental groups when the tumors were palpable at day 3. The tumor volume was measured using digital vernier calipers every 3 days and calculated according to the formula: volume (mm^3)=(length×width×width)/2. 2) Tongue-orthotopic solid tumor model: eight million human HNSCC Cal27 tumor cells in 50 μl DMEM were injected into the tongue at day 0 following isoflurane anesthesia and the tumor-bearing mice were randomly divided into the planned four experimental groups at day 3. 3) Experimental metastasis model: one million human HNSCC Cal27 tumor cells in 200 μl DMEM were intravenously injected at day 0 via tail vein and the tumor-bearing mice were randomly divided into the four experimental groups at day 3.
(§2) Mono-EGF-IT (mEGF-IT), bEGF-IT, or DT390 was intraperitoneally injected (IP) starting at day 4 at 50 μg/kg, once daily for 10 consecutive days. […] The injected animals were observed daily for signs and symptoms of illness and scored at least twice weekly based on the parameters as previously reported (Peraino et al. (2013), J. Immunol. Methods 398-399, 33-43, which is hereby incorporated by reference in its entirety; Wang et al., 2015). The animals were humanely euthanized when the score exceeded the limit or the animal lost more than 15% of its pre-injection body weight. In addition, to assess whether the fusion toxins are toxic to the animals, NSG mice injected with the fusion toxins only were also included as control.
In vivo efficacy of the mEGF-IT and bEGF-IT against HNSCC was assessed using three immunodeficient tumor-bearing NSG mouse models. The first in vivo efficacy model was a flank-xenograft solid tumor-bearing NSG mouse model. Eight million Cal27 tumor cells were injected subcutaneously (SQ) into the right flank at day 0. The EGF fusion toxins were injected intraperitoneally (IP) starting on day 4 at 50 μg/kg daily for 10 consecutive days. […] The reduction of the tumor volumes, weights and sizes (FIGS. 6B-6D) were all consistent with the median survival prolongation.

[2] = tested on: HNSCC Cal27 cells injected intravenously (lung metastases); experiment: Experimental lung metastasis NSG mouse model; format: in vivo, NSG mice; details: for Median survival time: Lung metastasis model, fusion toxin or DT390 50 μg/kg IP, erlotinib 20 mg/kg gavage, once daily for 10 days from day 4; for number of metastases in the lungs: second cohort, euthanized 10 days after tumor cell inoculation
Procedure: FIG. 8A-C presents data from in vivo efficacy analysis of the human EGF fusion toxins using an experimental lung metastasis NSG mouse model. FIG. 8A presents data from a first animal study for survival curve analysis. NSG mice were IV injected with one million human EGFR^+ HNSCC Cal27 cells on day 0. Mice were injected intraperitoneally (IP) with the EGF fusion toxin or DT390 at 50 μg/kg, once daily for 10 consecutive days starting on day 4 after the tumor cell injection. […] The schedule of the fusion toxin and tumor cell injection is pictured in the schematic below the survival curve. The vertical arrows indicate the days on which the tumor cells or the fusion toxins were injected. *P<0.05; **P<0.01; ***P<0.001; ****P<0.0001. The P-values for the survival curves were calculated using the Mantel-Cox log-rank test (GraphPad Prism9.0).
FIGS. 8B and C present data from a second animal study for a pathology analysis. […] The mice were euthanized on day 10 after tumor cell injection when the first mouse in the DT390 group reached the end point. FIG. 8B presents H&E pictures of lung metastases. Metastases are indicated in the upper panels by black arrowheads. Scale bar: 500 μm. The lower panels are higher magnification pictures of the area in black rectangles in the upper panels. […] Error bars indicate standard deviation (SD).
as §1, §2
The third in vivo efficacy model was an experimental metastasis model. One million of HNSCC Cal27 tumor cells were intravenously injected via the tail vein of NSG mice at day 0. The EGF fusion toxins were injected intraperitoneally (IP) starting on day 4 at 50 μg/kg daily for 10 consecutive days. […] To further assess the effects of the fusion toxins on metastasis, the experimental metastasis study was repeated with a second cohort of NSG mice, and all mice were euthanized 10 days after tumor cell inoculation, when the first mouse in the DT390 group reached the end point. The data are depicted in FIGS. 8B and C.

Compound	Median survival time [1] [days]	Median survival time [2] [days]	number of metastases in the lungs [2]	Median survival time ([1]; listed as bEGF-IT) [days]	decrease of tumor sizes and weights ([1]; flank xenograft, second cohort, day 14)
C#Cc1cccc(Nc2ncnc3cc(OCCOC)c(OCCOC)cc23)c1 [Erlotinib]	>60	30	reduced compared with the DT390-negative control group		
Bi-EGF IT: DT390 joined by G4S to two human EGF domains linked by (G4S)3, C-terminal 6×His tag; SEQ ID NO: 10	>60	38	reduced compared with the DT390-negative control group; also recorded: reduction was greater in the bi-EGF-IT group than in the mono-EGF-IT group	61	about 80%

Reference: patent US20230097992A1, “BIVALENT EGF FUSION TOXINS” (The Regents of the University of Colorado, a body corporate, priority 2020, published 2023)
